We go through eight molecules from ChEMBL document CHEMBL1201862, “PubChem BioAssay data set” (2004).

The structures appear in SMILES notation. Values joined by “and” are separate entries in the source; they are usually repeats but may differ in a detail not shown here. Equal entries are not always repeated.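 These data come from cells grown in 96-well plates and exposed to compound for 48 hours at five concentrations. GI50 marks 50% less growth.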 Active and inactive are the calls of the source. No stated cut-off is given here; in the data, active = GI50 up to about 1.1 µM and inactive = higher. Residues, ends and D or L forms follow the SMILES beside them. *: point of attachment. Boc = CC(C)(C)OC(=O)*; OBn = c1ccc(CO*)cc1

Among the test systems are 786-0; U-251; M14; NCI/ADR-RES; SF-268; HT-29; HOP-92; NCI-H226; COLO 205; KM12; SK-MEL-28; T47D; HCC 2998; LOX IMVI; EKVX; SK-MEL-2; OVCAR-8; MOLT-4; BT-549.
Common to all, as to experiment: DTP human tumour cell line panel, 48 h

As a reminder, the GI50 is the concentration that inhibits growth by half. Take `COC(=O)C1OC(O[C@H]2CC[C@]3(C)[C@H]4CC=C5[C@@H]6CC(C)(C)CC[C@]6(C(=O)OC6OCC(O)C(O)C6OC6OC(C)C(OC7OCC(O)C(O)C7O)C(O)C6O)[C@H](O)C[C@@]5(C)[C@]4(C)CC[C@H]3C2(C)C)C(O)C(O)C1O` (stereo partly drawn): the GI50 in the assay on 786-0 was 5.56 µM (inactive) and 8.55 µM (inactive); in the assay on U-251, 5.55 µM (inactive) and 6.11 µM (inactive); with M14, 2.75 µM (inactive) and 3.91 µM (inactive); with NCI/ADR-RES, 4.08 µM (inactive) and 3.24 µM (inactive); in the assay with SF-268, 9.29 µM (inactive) and 9.2 µM (inactive); with HT-29 it was 2.77 µM (inactive) and 3.73 µM (inactive). The GI50 was 1.88 µM (inactive) and 2.09 µM (inactive) in the assay on HOP-92; 7.13 µM (inactive) and 3.94 µM (inactive) in the assay on NCI-H226; 1.66 µM (inactive) and 1.83 µM (inactive) with COLO 205; 3.48 µM (inactive) and 3.61 µM (inactive) with KM12; 1.87 µM (inactive) and 2.13 µM (inactive) with SK-MEL-28; 8.28 µM (inactive) and 5.32 µM (inactive) in the assay on T47D. Further, the GI50 in the assay on HCC 2998 was 2.82 µM (inactive) and 1.82 µM (inactive); in the assay on LOX IMVI, 3.36 µM (inactive) and 6.43 µM (inactive); with EKVX, 3.27 µM (inactive) and 2.82 µM (inactive); in the assay on SK-MEL-2 it was 2.7 µM (inactive) and 2.9 µM (inactive).
`CC(=O)CC(O)(C(F)(F)Cl)C(F)(F)Cl`: the GI50 with 786-0, in the assay with U-251, in the assay with OVCAR-8, in the assay with M14, in the assay with NCI/ADR-RES and in the assay with SF-268 was > 10 µM (inactive) in each case. In addition, the GI50 in the assay with HT-29, in the assay on HOP-92, in the assay on MOLT-4, in the assay with NCI-H226, with COLO 205 and in the assay with KM12 was > 10 µM (inactive) in each case. For the same molecule, the GI50 in the assay on SK-MEL-28, in the assay with T47D, in the assay on HCC 2998, in the assay on LOX IMVI, with EKVX and with SK-MEL-2 was > 10 µM (inactive) in each case.
As to `CC12C=CC(C)(C3C(=O)C4C(C(=O)C31)C1(C)C=CC4(C)[S+]1[O-])[S+]2[O-]` (stereo not drawn), the GI50 was > 100 µM (inactive) in the assay with BT-549; 51.2 µM (inactive) with 786-0; 56 µM (inactive) in the assay on OVCAR-8; > 100 µM (inactive) with M14; 64.7 µM (inactive) in the assay on NCI/ADR-RES; > 100 µM (inactive) with SF-268. The GI50 was 47.6 µM (inactive) in the assay on HT-29; > 100 µM (inactive) in the assay on NCI-H226; 34.9 µM (inactive) with COLO 205; > 100 µM (inactive) with KM12; > 100 µM (inactive) in the assay on HCC 2998; 81.5 µM (inactive) with LOX IMVI. Also, the GI50 in the assay on EKVX is > 100 µM (inactive).
In the case of `CCN(CC)C(=S)N/N=C(/C)c1cccc(/C(C)=N\NC(=S)N(CC)CC)n1`, the GI50 was 1.45 µM (inactive) in the assay on 786-0; 2.34 µM (inactive) with U-251; 1.44 µM (inactive) in the assay with OVCAR-8; 1.38 µM (inactive) in the assay with M14; 2 µM (inactive) in the assay on NCI/ADR-RES; 0.334 µM (active) in the assay on SF-268. Besides, the GI50 was 3.52 µM (inactive) in the assay with HT-29; 1.46 µM (inactive) in the assay on HOP-92; 1.66 µM (inactive) in the assay on MOLT-4; 1.56 µM (inactive) in the assay with NCI-H226; 1.58 µM (inactive) in the assay with COLO 205; 0.26 µM (active) in the assay on KM12. Besides, the GI50 in the assay with SK-MEL-28 was 1.21 µM (inactive); in the assay with T47D, 4.88 µM (inactive); with HCC 2998, 3.9 µM (inactive); with LOX IMVI it was 1.81 µM (inactive); in the assay with EKVX, 2.64 µM (inactive); in the assay with SK-MEL-2, 4.68 µM (inactive).
Regarding `O=c1ccc(-c2ccc(-n3ccnc3)cc2)nn1CCO`, the GI50 in the assay on BT-549, in the assay on 786-0, in the assay on U-251, with OVCAR-8, in the assay on M14 and with SF-268 was > 100 µM (inactive) in each case. Moreover, the GI50 in the assay with HT-29, in the assay with HOP-92, in the assay on MOLT-4, in the assay on COLO 205, with KM12 and with SK-MEL-28 was > 100 µM (inactive) each time. For the same molecule, the GI50 was > 100 µM (inactive) with HCC 2998 and 46.6 µM (inactive) in the assay with EKVX.
Turning to `CNc1ccc2c(c1)Cc1ccccc1-2`, the GI50 with 786-0 was 53 µM (inactive); in the assay with U-251 it was 34.4 µM (inactive); in the assay with OVCAR-8, 25.4 µM (inactive); with M14 it was 34.1 µM (inactive); in the assay on NCI/ADR-RES it was > 100 µM (inactive); in the assay with SF-268 it was 44 µM (inactive). Besides, the GI50 was 30.3 µM (inactive) with HT-29; 21 µM (inactive) in the assay with HOP-92; 17 µM (inactive) with MOLT-4; 78 µM (inactive) in the assay on NCI-H226; 38.7 µM (inactive) in the assay with COLO 205; 36.1 µM (inactive) with KM12. In addition, the GI50 was 44.5 µM (inactive) in the assay with SK-MEL-28; 24.1 µM (inactive) in the assay with T47D; 30.6 µM (inactive) in the assay with HCC 2998; 50.9 µM (inactive) in the assay with LOX IMVI; 12.7 µM (inactive) with EKVX; 35.4 µM (inactive) in the assay with SK-MEL-2.
For `CC(C)C(NC(=O)CNC(=O)C1CCCN1C(=O)C(NC(=O)OC(C)(C)C)C(C)C)C(=O)NCC(=O)OCc1ccccc1` (stereo not drawn) (Boc-VPGVG-OBn; configuration not given here), the GI50 in the assay with 786-0, in the assay with U-251, in the assay with OVCAR-8, with M14, in the assay on NCI/ADR-RES and in the assay with SF-268 was > 100 µM (inactive) throughout. The GI50 with HT-29, in the assay with HOP-92, in the assay with MOLT-4, in the assay with NCI-H226, in the assay on COLO 205 and with KM12 was > 100 µM (inactive) each time. The GI50 in the assay with SK-MEL-28, in the assay with T47D, in the assay on HCC 2998, in the assay on LOX IMVI, in the assay with EKVX and with SK-MEL-2 was > 100 µM (inactive) each time.
As to `COC(=O)C1=C(C)NC(C)=C(C(=O)OCCCN2CCC(c3ccccc3)(c3ccccc3)CC2)[C@H]1c1cccc([N+](=O)[O-])c1` [NIGULDIPINE], the GI50 with 786-0 is 1.61 µM (inactive); with U-251 it was 1.8 µM (inactive); with OVCAR-8, 1.95 µM (inactive); in the assay with M14 it was 1.69 µM (inactive); in the assay on NCI/ADR-RES, 1.73 µM (inactive); in the assay with SF-268 it was 1.79 µM (inactive). Besides, the GI50 is 1.3 µM (inactive) with HT-29; 1.39 µM (inactive) with HOP-92; 1.95 µM (inactive) in the assay on MOLT-4; 3.25 µM (inactive) with NCI-H226; 1.57 µM (inactive) in the assay on COLO 205; 1.77 µM (inactive) with KM12. Further, the GI50 was 1.88 µM (inactive) in the assay with SK-MEL-28; 11.5 µM (inactive) in the assay with T47D; 2.24 µM (inactive) in the assay with HCC 2998; 1.62 µM (inactive) in the assay with LOX IMVI; 2 µM (inactive) in the assay with EKVX; 2.41 µM (inactive) in the assay with SK-MEL-2.
